molecular target: human lung tryptase; assay: β-Tryptase In-Vitro Enzyme Assay; format: biochemical; details: human lung tryptase 1 nM, substrate H-D-HHT-Ala-Arg-pNa 500 μM, pH 7.4, room temperature
Method: The β-tryptase assay was conducted with human lung tryptase (Cortex Biochem #CP3033) in an aqueous buffer (10 mM Tris, 10 mM Hepes, 150 mM NaCl, 0.1% PEG 8000, pH 7.4) using the chromogenic substrate H-D-HHT-Ala-Arg-pNa. […] Percent inhibition was calculated by comparing the initial reaction velocity of samples without inhibitor to those with inhibitor. The initial reaction velocities were analyzed using Microsoft Excel.

Compared with NCc1ccc2c(c1)C1(CCN(C(=O)c3ccc(COc4ccc(F)cc4)o3)CC1)CO2 [Cpd 154, 1-[5-(4-fluoro-phenoxymethyl)-furan-2-yl]carbonyl-5′-aminomethyl-spiro[piperidine-4,3′-(2H)-benzo[b]furan]], NCc1ccc2c(c1)C1(CCN(C(=O)c3ccc(C#Cc4ccccc4F)o3)CC1)CO2 [Cpd 35, 1-[5-(2-fluoro-phenylethynyl)-furan-2-yl]carbonyl-5′-aminomethyl-spiro[piperidine-4,3′-(2H)-benzo[b]furan]] is 60-fold lower in IC50: 260 nM for the first, 4.3 nM for the second.

Compared with Cc1cc(C(=O)N2CCC3(CC2)COc2ccc(CN)cc23)ccc1Br [Cpd 30, 1-(3-methyl-4-bromo-phenyl)carbonyl-5′-aminomethyl-spiro[piperidine-4,3′-(2H)-benzo[b]furan]], NCc1ccc2c(c1)C1(CCN(C(=O)c3cccc(I)c3)CC1)CO2 [Cpd 48, 1-(3-iodo-phenyl)carbonyl-5′-aminomethyl-spiro[piperidine-4,3′-(2H)-benzo[b]furan]] is 8.8-fold lower in IC50: 140 nM for the first, 16 nM for the second. The second is the more potent here.

First: CSc1sc(C(=O)N2CCC3(CC2)COc2ccc(CN)cc23)cc1C#N [Cpd 258, 1-(4-cyano-5-methylthio-thien-2-yl)carbonyl-5′-aminomethyl-spiro[piperidine-4,3′-(2H)-benzo[b]furan]]
Second: NCc1ccc2c(c1)C1(CCN(C(=O)c3cc4ccsc4s3)CC1)CO2 [Cpd 233, 1-thieno[2,3-b]thien-2-ylcarbonyl-5′-aminomethyl-spiro[piperidine-4,3′-(2H)-benzo[b]furan]]
The IC50 of the first is 2.9-fold lower: 28 nM for the first, 82 nM for the second. The first is the more potent here.

First: COCCOc1cccc(/C=C/C(=O)N2CCC3(CC2)COc2ccc(CN)cc23)c1 [Cpd 291, (E)-1-[3-(2-methoxy-ethoxy)-phenylethenyl]carbonyl-5′-aminomethyl-spiro[piperidine-4,3′-(2H)-benzo[b]furan]]
Second: NCc1ccc2c(c1)C1(CCN(C(=O)/C=C/c3ccccc3Br)CC1)CO2 [Cpd 199, (E)-1-(2-bromo-phenylethenyl)carbonyl-5′-aminomethyl-spiro[piperidine-4,3′-(2H)-benzo[b]furan]]
The IC50 of the first is 2.2-fold higher: 400 nM for the first, 180 nM for the second.

Compared with NCc1ccc2c(c1)C1(CCN(C(=O)c3ccc(-c4cccc(C(F)(F)F)c4)o3)CC1)CO2 [Cpd 135, 1-[5-(3-trifluoromethyl-phenyl)-furan-2-yl]carbonyl-5′-aminomethyl-spiro[piperidine-4,3′-(2H)-benzo[b]furan]], NCc1ccc2c(c1)C1(CCN(C(=O)c3ccc(CSc4ccc(C(F)(F)F)cn4)o3)CC1)CO2 [Cpd 151, 1-[5-(5-trifluoromethyl-pyridin-2-ylthiomethyl)-furan-2-yl]carbonyl-5′-aminomethyl-spiro[piperidine-4,3′-(2H)-benzo[b]furan]] is 1.8-fold lower in IC50: 330 nM for the first, 180 nM for the second. The second is the more potent here.

Compared with NCc1ccc2c(c1)C1(CCN(C(=O)c3ccc(C#Cc4cc(F)cc(F)c4)o3)CC1)CO2 [Cpd 176, 1-[5-(3,5-difluoro-phenylethynyl)-furan-2-yl]carbonyl-5′-aminomethyl-spiro[piperidine-4,3′-(2H)-benzo[b]furan]], CC(C)(C)c1ccc(C#Cc2ccc(C(=O)N3CCC4(CC3)COc3ccc(CN)cc34)o2)cc1 [Cpd 282, 1-[5-(4-tert-butyl-phenylethynyl)-furan-2-yl]carbonyl-5′-aminomethyl-spiro[piperidine-4,3′-(2H)-benzo[b]furan]] is 17-fold higher in IC50: 41 nM for the first, 700 nM for the second.

First: CNNC1CC(S(=O)(=O)N2CC3(CCN(C(=O)c4ccc(C#Cc5ccccc5)o4)CC3)c3cc(CN)ccc32)CS1(=O)=O (centres unmarked) [Cpd 338, 1-(5-phenylethynyl-furan-2-yl)carbonyl-1′-[5-(N′-methyl-hydrazino)-1,1-dioxo-3,4,5-trihydro-(2H)-thien-3-yl]sulfonyl-5′-aminomethyl-spiro[piperidine-4,3′-(2H)-indole]]
Second: CC(=O)N1CC2(CCN(C(=O)c3ccc(C#Cc4ccccc4)o3)CC2)c2cc(CN)ccc21 [Cpd 339, 1-(5-phenylethynyl-furan-2-yl)carbonyl-1′-methylcarbonyl-5′-aminomethyl-spiro[piperidine-4,3′-(2H)-indole]]
The IC50 of the first is 4.9-fold higher: 73 nM for the first, 15 nM for the second. The second is the more potent here.

Going from NCc1ccc2c(c1)C1(CCN(C(=O)c3ccc(C#Cc4ccccc4)o3)CC1)CN2S(=O)(=O)c1ccc(C(=O)O)cc1 [Cpd 324, 1-(5-phenylethynyl-furan-2-yl)carbonyl-1′-(4-carboxy-phenyl)sulfonyl-5′-aminomethyl-spiro[piperidine-4,3′-(2H)-indole]] to CCOC(=O)C(=O)N1CC2(CCN(C(=O)c3ccc(C#Cc4ccccc4)o3)CC2)c2cc(CN)ccc21 [Cpd 329, 1-(5-phenylethynyl-furan-2-yl)carbonyl-1′-(2-ethoxy-1,2-dioxo-ethyl)-5′-aminomethyl-spiro[piperidine-4,3′-(2H)-indole]], the IC50 falls from 200 nM to 44 nM (4.5-fold).

First: Cc1ccc(-c2nc(C)c(C(=O)N3CCC4(CC3)COc3ccc(CN)cc34)s2)cc1 [Cpd 125, 1-[2-(4-methyl-phenyl)-4-methyl-thiazol-5-yl]carbonyl-5′-aminomethyl-spiro[piperidine-4,3′-(2H)-benzo[b]furan]]
Second: Cc1nc(-c2ccc(C(F)(F)F)cc2)sc1C(=O)N1CCC2(CC1)COc1ccc(CN)cc12 [Cpd 128, 1-[2-(4-trifluoromethyl-phenyl)-4-methyl-thiazol-5-yl]carbonyl-5′-aminomethyl-spiro[piperidine-4,3′-(2H)-benzo[b]furan]]
The IC50 of the first is 44-fold higher: 7500 nM for the first, 170 nM for the second.

First: CCSc1sc(C(=O)N2CCC3(CC2)COc2ccc(CN)cc23)c2c1C(=O)CC(C)(C)C2 [Cpd 223, 1-(3-ethylthio-4-oxo-6,6-dimethyl-6,7-dihydro-5H-benzo[c]thien-1-yl)carbonyl-5′-aminomethyl-spiro[piperidine-4,3′-(2H)-benzo[b]furan]]
Second: CCc1ccc2c(Cl)c(C(=O)N3CCC4(CC3)COc3ccc(CN)cc34)sc2c1 [Cpd 271, 1-(3-chloro-6-ethyl-benzo[b]thien-2-yl)carbonyl-5′-aminomethyl-spiro[piperidine-4,3′-(2H)-benzo[b]furan]]
The IC50 of the first is 130-fold lower: 21 nM for the first, 2800 nM for the second. The first is the more potent here.

Going from NCc1ccc2c(c1)C1(CCN(C(=O)/C=C/c3cccc(F)c3F)CC1)CO2 [Cpd 312, (E)-1-(2,3-difluoro-phenylethenyl)carbonyl-5′-aminomethyl-spiro[piperidine-4,3′-(2H)-benzo[b]furan]] to NCc1ccc2c(c1)C1(CCN(C(=O)/C=C/c3cccs3)CC1)CO2 [Cpd 254, (E)-1-(thien-2-ylethenyl)carbonyl-5′-aminomethyl-spiro[piperidine-4,3′-(2H)-benzo[b]furan]], the IC50 falls from 590 nM to 370 nM (1.6-fold). The second is the more potent here.

Compared with NCc1ccc2c(c1)C1(CC2)CCN(C(=O)c2ccc(C#Cc3ccccc3)o2)CC1 [Cpd 318, 1-(5-phenylethynyl-furan-2-yl)carbonyl-5′-aminomethyl-spiro[piperidine-4,3′-indane]], COc1ccccc1C#Cc1ccc(C(=O)N2CCC3(CC2)COc2ccc(CN)cc23)o1 [Cpd 173, 1-[5-(2-methoxy-phenylethynyl)-furan-2-yl]carbonyl-5′-aminomethyl-spiro[piperidine-4,3′-(2H)-benzo[b]furan]] is 4.2-fold higher in IC50: 3.1 nM for the first, 13 nM for the second. The first is the more potent here.

First: NCc1ccc2c(c1)C1(CCN(C(=O)c3cncc(-c4cccs4)c3)CC1)CO2 [Cpd 143, 1-(5-thien-2-yl-pyridin-3-yl)carbonyl-5′-aminomethyl-spiro[piperidine-4,3′-(2H)-benzo[b]furan]]
Second: NCc1ccc2c(c1)C1(CCN(C(=O)c3cccs3)CC1)CO2 [Cpd 159, 1-thien-2-ylcarbonyl-5′-aminomethyl-spiro[piperidine-4,3′-(2H)-benzo[b]furan]]
The IC50 of the first is 3.8-fold lower: 56 nM for the first, 210 nM for the second.

NCc1ccc2c(c1)C1(CCN(C(=O)c3csc(-c4ccncc4)n3)CC1)CO2 [Cpd 122, 1-(2-pyridin-4-yl-thiazol-4-yl)carbonyl-5′-aminomethyl-spiro[piperidine-4,3′-(2H)-benzo[b]furan]] and CN(C)c1ccc(C(=O)N2CCC3(CC2)COc2ccc(CN)cc23)cc1 [Cpd 55, 1-(4-dimethylamino-phenyl)carbonyl-5′-aminomethyl-spiro[piperidine-4,3′-(2H)-benzo[b]furan]] are within 1.5-fold of each other in IC50: 760 nM for the first, 1000 nM for the second.

Compared with NCc1cc2c(cc1F)OCC21CCN(C(=O)c2ccc(Cl)c(Cl)c2)CC1 [Cpd 308, 1-(3,4-dichlorophenyl)carbonyl-5′-aminomethyl-6′-fluoro-spiro[piperidine-4,3′-(2H)-benzo[b]furan]], NCc1ccc2c(c1)C1(CCN(C(=O)c3ccc(Cl)c(Cl)c3)CC1)C(=O)N2 [Cpd 315, 1-(3,4-dichlorophenyl)carbonyl-2′-oxo-5′-aminomethyl-spiro[piperidine-4,3′-(2H)-indole]] is 15-fold lower in IC50: 7300 nM for the first, 480 nM for the second. The second is the more potent here.

First: Cc1ccc2c(Cl)c(C(=O)N3CCC4(CC3)COc3ccc(CN)cc34)sc2c1 [Cpd 207, 1-(3-chloro-6-methyl-benzo[b]thien-2-yl)carbonyl-5′-aminomethyl-spiro[piperidine-4,3′-(2H)-benzo[b]furan]]
Second: NCc1ccc2c(c1)C1(CCN(S(=O)(=O)c3ccc(Cl)c(Cl)c3)CC1)CO2 [Cpd 280, 1-(3,4-dichlorophenyl)sulfonyl-5′-aminomethyl-spiro[piperidine-4,3′-(2H)-benzo[b]furan]]
The IC50 of the first is 6.8-fold higher: 1500 nM for the first, 220 nM for the second.

Going from Cc1c(C(=O)N2CCC3(CC2)COc2ccc(CN)cc23)oc2c1C(=O)CC(c1ccccc1)C2 (centres unmarked) [Cpd 222, 1-(3-methyl-4-oxo-6-phenyl-5,6,7-trihydro-4H-benzo[b]furan-2-yl)carbonyl-5′-aminomethyl-spiro[piperidine-4,3′-(2H)-benzo[b]furan]] to NCc1ccc2c(c1)C1(CCN(C(=O)c3ccc(CN4CCOCC4)o3)CC1)CO2 [Cpd 216, 1-(5-morpholin-4-ylmethyl-furan-2-yl)carbonyl-5′-aminomethyl-spiro[piperidine-4,3′-(2H)-benzo[b]furan]], the IC50 rises from 260 nM to 1700 nM (6.5-fold).

CC(C)(C)c1cc(C(=O)N2CCC3(CC2)COc2ccc(CN)cc23)cc(C(C)(C)C)c1 [Cpd 133, 1-(3,5-di-tert-butyl-phenyl)carbonyl-5′-aminomethyl-spiro[piperidine-4,3′-(2H)-benzo[b]furan]] showed an IC50 of 81 nM.
